# Several values for one entry are separate records, joined by “and”; a condition that tells them apart may be missing. Equal values may be shown once.
# Key:
# [1] = tested on: gonadotrope cell line LβT2 cells; assay: Time course of IRC response to GnRH in presence and absence of cyclohexamide (CHX); assay type: cell-based, mouse; conditions: 100 nM GnRH, protein synthesis inhibitor cyclohexamide
# Method: The cells were treated with 100 nM GnRH in the presence and absence of the inhibitor of protein synthesis, cyclohexamide (CHX). […] No other proteins need to be synthesized to induce activation of this IRC. The use of a time course such as that illustrated allow selection of the optimum time point or time points after stimulation at which to assay the IRCs to provide the most complete map of the cell global signal transduction response.
# The proper time point or time points after exposure can be determined experimentally in any system by performing a time course of the gene response. If a single time point after exposure is assayed, it is best to select a time at which most IRCs are continuing to show an increase in the level of expression. This is usually between 30 minutes and 1 hour.
# [2] = tested on: GnRHR-expressing LβT2 gonadotrope cell line; assay: Focused cDNA microarray analysis (FMA) of genes regulated by GnRH in LβT2 cells; assay type: cell-based, mouse
# Method: Cell Culture and Sample Preparation: LβT2 cells were obtained and maintained at 37° C. in 5% CO2 in humidified air in DMEM (Mediatech) containing 10% fetal bovine serum (Gemini). For experiments. 40-50×10^6 cells were seeded in 15 cm dishes. The medium was replaced 21 hours later with DMEM containing 25 mM HEPES (Mediatech) and glutamine. […] The incubation was stopped by aspirating the incubation medium and adding 10 ml of lysis buffer (4M guanidinium thiocyanate, 25 mM sodium citrate, pH 7.0, 0.5% N-lauroyl-sarcosine, and 0.1 M 2-mercaptoethanol). Total RNA was isolated according to the method of Chomczynski and Sacchi (1987) supra. Approximately 400 μg total RNA was obtained from each plate.
# Microarray Development: The 956 clones were selected from an NIA 15K library (Tanaka et al. (2000) Proc. Natl. Acad. Sci. USA 97:9127-9132) or purchased from Research Genetics. The gene selection was partially based on literature searches. A large number of genes known to be induced at early time points in other experimental systems were included as well as 67 putative “housekeeping” genes. Plasmids were purified using the Qiaprep 96 Turbo Miniprep kit. Following insert amplification by PCR, products were confirmed by agarose gel electrophoresis and purified with Qiaquick 96 kit (Qiagen). The product was dried, dissolved in 18 μl H2O. 50% DMSO or 3×SSC and spotted (3 hits/feature, 3 features/gene) with a GMS 417 Arrayer (Affymetrix) on CMT-GAPS coated glass slides (Corning). DNA was fixed either by incubating the slide 3.5 hours at 40° C. followed by 10 min at 100° C. or for 2 hours at 85° C. or by UV crosslinking with 90 mJ (Stratalinker, Stratagene). Arrays were stored light-protected at room temperature until use. A Cy5-labeled oligomer complementary to one of the amplification primers was designed to test printing and attachment efficiency (5′-CGTTTTACAACGTCGTGACTGGG-3′) (SEQ ID NO:1). 12% of the cDNAs on the array were confirmed by sequencing, including randomly selected clones on each 96-well plate and all genes that were identified as regulated.
# RNA Labeling and Hybridization. 20 μg of total RNA from each sample was labeled with either Cy3 or Cy5 using the Atlas indirect labeling kit (Clontech) as indicated by the manufacturer. Following array prehybridization in 6×SSC, 0.5% SDS, 1% BSA at 42° C. for 45 min, the probe was denatured and hybridized in 24 μl 50% formamid, 6×SSC, 0.5% SDS. 5×Denhardt's with 2.4 μg salmon sperm DNA, 10 μg poly dA at 42° C. (room temperature for test oligomer hybridization) for 16 hours. Following 10 min washes in 0.1×SSC, 0.1% SDS, and twice in 0.1×SSC the slide was scanned using the GMS 418 Scanner (Affymetrix).
# Data Analysis. […] The median background-subtracted feature intensity was utilized for further analysis. Overall differences in the signal intensity of the two wavelengths measured on each slide (λ=532 nm and λ=635 nm) were corrected using the locally linear robust scatterplot smoother implemented in the loess function in S Plus Professional (Insightful Corporation). Predictors were generated using a symmetric distribution, span=0.75 (Venables and Ripley (1999) Modern Applied Statistics with S-Plus. Spring, N.Y. Measurement precision was estimated by determining the median coefficient of variation within slides for each gene:
# [formula] Genes were selected according to the following algorithm (i) ±fold-change of >1.3; (ii) |t|>3; (iii) signal intensity in at least one channel >1% of the median signal intensity value; (iv) criteria i-iii observed in at least 2 of 3 experiments.
# Microarray Identification of Genes Activated by GnRH is LβT2 Cells. The response to GnRH was studied in the GnRHR-expressing LβT2 gonadotrope cell line (Turgeon et al. (1996) Mol Endocrinol. 10:439-450). Three separate experiments comparing the effects of 1 hour exposure to GnRH or vehicle were performed. […]
# [3] = 100 nM GnRH vs vehicle, 1 hour, LβT2 cells
# [4] = two clones spotted in different locations on the arrays, 100 nM GnRH, 1 hour
substance,measurement,setting,value
gonadotropin releasing hormone [GnRH],levels of gly96 in the presence of CHX,[1],increase
same,"1κB fold-change, Microarray (n = 3)",[2]; [3],1.7 ± 0.2 fold
same,"Egr1 fold-change, Microarray (n = 3)",[2]; [3],12.9 ± 3.8 fold
same,"Egr2 fold-change, Microarray (n = 3)",[2]; [3],1.5 ± 0.2 fold
same,"Gem fold-change, Microarray (n = 3)",[2]; [3],1.7 ± 0.2 fold
same,"HSP30 fold-change, Microarray (n = 3)",[2]; [3],1.3 ± 0.2 fold
same,"Klf4 fold-change, Microarray (n = 3)",[2]; [3],1.7 ± 0.3 fold
same,"Klf-like EST fold-change, Microarray (n = 3)",[2]; [3],2.3 ± 0.3 fold
same,"LRG21 fold-change, Microarray (n = 3)",[2]; [3],31.2 ± 16.6 fold
same,"MKP1/3CH134 fold-change, Microarray (n = 3)",[2]; [3],1.4 ± 0.1 fold
same,"NMDMC fold-change, Microarray (n = 3)",[2]; [3],1.4 ± 0.3 fold
same,"Nr4a1/nur77 fold-change, Microarray (n = 3)",[2]; [3],5.9 ± 1.5 fold
same,"Nrf2 fold-change, Microarray (n = 3)",[2]; [3],1.3 ± 0.2 fold
same,"PRL1 fold-change, Microarray (n = 3)",[2]; [3],2.0 ± 0.4 fold
same,"Period1 fold-change, Microarray (n = 3)",[2]; [3],2.1 ± 0.1 fold
same,"Rgs2 fold-change, Microarray (n = 3)",[2]; [3],4.0 ± 1.3 fold
same,"TSC22 fold-change, Microarray (n = 3)",[2]; [3],3.4 ± 0.4 fold
same,"c-fos fold-change, Microarray (n = 3)",[2]; [3],12.5 ± 4.0 fold
same,"c-jun fold-change, Microarray (n = 3)",[2]; [3],3.8 ± 0.6 fold
same,"gly96 fold-change, Microarray (n = 3)",[2]; [3],1.7 ± 0.6 fold
same,"ler2/Pip92 fold-change, Microarray (n = 3)",[2]; [3],5.2 ± 1.2 fold
same,"transgelin fold-change, Microarray (n = 3)",[2]; [3],1.4 ± 0.1 fold
same,"β-actin fold-change, Microarray (n = 3)",[2]; [3],2.0 ± 0.5 fold
same,"γ-actin fold-change, Microarray (n = 3)",[2]; [3],2.7 ± 0.3 fold
same,"Time course of induced genes, FMA",[2]; cells exposed to GnRH for 3 hours and 6 hours,nearly all of the induced genes return to baseline levels of expression by 3 hours
same,"Nrf2 degree of change on microarray, two different clones",[2]; [4],1.3±0.2 and 1.3±0.1
same,"PRL1 degree of change on microarray, two different clones",[2]; [4],2.0±0.4 and 1.5±0.4
same,"Rgs2 degree of change on microarray, two different clones",[2]; [4],4.0±1.3 and 2.9±1.2
same,"TSC22 degree of change on microarray, two different clones",[2]; [4],3.4±0.4 and 3.3±0.6

# Reference: patent US7723023B2, “Use of intrinsic reporters of cell signaling for high content drug profiling and toxicity screening” (Mount Sinai School of Medicine, priority 2001, dated 2010)
